Source: publication PMC12517324, “Hyperagonism of a Vitamin D Receptor Agonist/Histone Deacetylase Inhibitor Hybrid Molecule” (Journal of Medicinal Chemistry, 2025)

Test system: B16–F10 cells
Experiment: RNaseq gene expression profiling
Type: cell-based, mouse
Procedure: AC-340 superinduced CYP24A1 expression in all cell lines tested, and ZG-126 appeared to be a hyperagonist in SK-MEL-28 cells. […] AC-340 treatment produced 3 times more differentially expressed genes (DEGs) than AM-193, with ZG-126 producing an intermediate number (Figure A). […] The varying effects of each treatment on the numbers of regulated genes and the fold changes observed are reflected in plots of log-fold changes and volcano plots (Figure S3B).
A quality control was performed before sequencing in paired-end at 50 M reads by Illumina NovaSeq 6000 S4 PE100. After sequencing, the FASTQ files were sent to us and all downstream analysis were performed on Galaxy (Galaxy (usegalaxy.org)). First, trimmomatic tool was used to remove the adapters from the reads. Then, using the alignment tool, HISAT2, the reads were mapped to the mouse genome. In the next step, the counted reads were annotated and finally the list of differentially expressed genes (DEGs) for each treatment was obtained using the preinstalled R package called Limma.

Compound: CCC(CC)(c1ccc(OCCCCCC(=O)NO)cc1)c1ccc(OCC(O)C(C)(C)C)c(C)n1 (stereo not shown) [AM-193]
- logFC Rnf145 (RNAseq, gene Rnf145, AM193-significant genes): -0.7842
- logFC Rpia (RNAseq, gene Rpia, AM193-significant genes): -0.7096
- logFC Samd1 (RNAseq, gene Samd1, AM193-significant genes): -0.798
- logFC Selenbp1 (RNAseq, gene Selenbp1, AM193-significant genes): -1.012
- logFC Sema7a (RNAseq, gene Sema7a, AM193-significant genes): -0.8174
- logFC Sfxn2 (RNAseq, gene Sfxn2, AM193-significant genes): -0.9624
- logFC Sigmar1 (RNAseq, gene Sigmar1, AM193-significant genes): -0.7437
- logFC Sik1 (RNAseq, gene Sik1, AM193-significant genes): -0.7218
- logFC Ska3 (RNAseq, gene Ska3, AM193-significant genes): -0.7116
- logFC Slc2a1 (RNAseq, gene Slc2a1, AM193-significant genes): -1.04
- logFC Slc37a4 (RNAseq, gene Slc37a4, AM193-significant genes): -0.9222
- logFC Slc39a10 (RNAseq, gene Slc39a10, AM193-significant genes): -0.7848
- logFC Snrpa1 (RNAseq, gene Snrpa1, AM193-significant genes): -1.002
- logFC Snrpd1 (RNAseq, gene Snrpd1, AM193-significant genes): -0.7702
- logFC Spc24 (RNAseq, gene Spc24, AM193-significant genes): -0.7364
- logFC Srm (RNAseq, gene Srm, AM193-significant genes): -1.055
- logFC Tarbp1 (RNAseq, gene Tarbp1, AM193-significant genes): -0.7191
- logFC Tbl2 (RNAseq, gene Tbl2, AM193-significant genes): -0.8635
- logFC Tet1 (RNAseq, gene Tet1, AM193-significant genes): -0.8944
- logFC Tfap4 (RNAseq, gene Tfap4, AM193-significant genes): -1.016
- logFC Tinagl1 (RNAseq, gene Tinagl1, AM193-significant genes): -0.9151
- logFC Tk1 (RNAseq, gene Tk1, AM193-significant genes): -0.987
- logFC Tonsl (RNAseq, gene Tonsl, AM193-significant genes): -0.711
- logFC Tpi1 (RNAseq, gene Tpi1, AM193-significant genes): -0.895
- logFC Trip13 (RNAseq, gene Trip13, AM193-significant genes): -0.8647
- logFC Trmt61a (RNAseq, gene Trmt61a, AM193-significant genes): -0.7832
- logFC Trpm1 (RNAseq, gene Trpm1, AM193-significant genes): -0.743
- logFC Ttk (RNAseq, gene Ttk, AM193-significant genes): -0.8273
- logFC Uba7 (RNAseq, gene Uba7, AM193-significant genes): -0.9636
- logFC Ugdh (RNAseq, gene Ugdh, AM193-significant genes): -0.8794
- logFC Ugp2 (RNAseq, gene Ugp2, AM193-significant genes): -0.7144
- logFC Uhrf1 (RNAseq, gene Uhrf1, AM193-significant genes): -0.8121
- logFC Xrcc3 (RNAseq, gene Xrcc3, AM193-significant genes): -0.7656
- logFC Abca12 (RNaseq, B16–F10 cells, gene Abca12 (ATP-binding cassette, sub-family A (ABC1), member 12), sheet AM193-significant genes): -1.21
- logFC Ak4 (RNaseq, B16–F10 cells, gene Ak4 (adenylate kinase 4), sheet AM193-significant genes): -1.909
- logFC Bnip3 (RNaseq, B16–F10 cells, gene Bnip3 (BCL2/adenovirus E1B interacting protein 3), sheet AM193-significant genes): -1.2222
- logFC Cck (RNaseq, B16–F10 cells, gene Cck (cholecystokinin), sheet AM193-significant genes): -1.792
- logFC Cited1 (RNaseq, B16–F10 cells, gene Cited1 (Cbp/p300-interacting transactivator with Glu/Asp-rich carboxy-terminal domain 1), sheet AM193-significant genes): -1.397
- logFC Dna2 (RNaseq, B16–F10 cells, gene Dna2 (DNA replication helicase/nuclease 2), sheet AM193-significant genes): -1.157
- logFC Gpd1 (RNaseq, B16–F10 cells, gene Gpd1 (glycerol-3-phosphate dehydrogenase 1 (soluble)), sheet AM193-significant genes): -1.351
- logFC H2bc12 (RNaseq, B16–F10 cells, gene H2bc12 (H2B clustered histone 12), sheet AM193-significant genes): -1.307
- logFC H3c8 (RNaseq, B16–F10 cells, gene H3c8 (H3 clustered histone 8), sheet AM193-significant genes): -1.15
- logFC Hk2 (RNaseq, B16–F10 cells, gene Hk2 (hexokinase 2), sheet AM193-significant genes): -1.284
- logFC Kit (RNaseq, B16–F10 cells, gene Kit (KIT proto-oncogene receptor tyrosine kinase), sheet AM193-significant genes): -2.0666
- logFC Lpar5 (RNaseq, B16–F10 cells, gene Lpar5 (lysophosphatidic acid receptor 5), sheet AM193-significant genes): -1.721
- logFC Megf6 (RNaseq, B16–F10 cells, gene Megf6 (multiple EGF-like-domains 6), sheet AM193-significant genes): -1.186
- logFC Mgll (RNaseq, B16–F10 cells, gene Mgll (monoglyceride lipase), sheet AM193-significant genes): -1.2265
- logFC Mknk2 (RNaseq, B16–F10 cells, gene Mknk2 (MAP kinase-interacting serine/threonine kinase 2), sheet AM193-significant genes): -1.156
- logFC Nr4a3 (RNaseq, B16–F10 cells, gene Nr4a3 (nuclear receptor subfamily 4, group A, member 3), sheet AM193-significant genes): -2.364
- logFC Oas2 (RNaseq, B16–F10 cells, gene Oas2 (2'-5' oligoadenylate synthetase 2), sheet AM193-significant genes): -1.532
- logFC Pafah1b3 (RNaseq, B16–F10 cells, gene Pafah1b3 (platelet-activating factor acetylhydrolase, isoform 1b, subunit 3), sheet AM193-significant genes): -1.354
- logFC Pdk1 (RNaseq, B16–F10 cells, gene Pdk1 (pyruvate dehydrogenase kinase, isoenzyme 1), sheet AM193-significant genes): -1.253
- logFC Sapcd2 (RNaseq, B16–F10 cells, gene Sapcd2 (suppressor APC domain containing 2), sheet AM193-significant genes): -1.167
- logFC Slc16a3 (RNaseq, B16–F10 cells, gene Slc16a3 (solute carrier family 16 (monocarboxylic acid transporters), member 3), sheet AM193-significant genes): -1.321
- logFC (gene 1700019D03Rik): 1.314
- logFC (gene 4930455G09Rik): 1.641
- logFC (gene Abca8b): 1.273
- logFC (gene Abcd2): 4.745
- logFC (gene Adamts7): 1.528
- logFC (gene Adamtsl5): 1.436
- logFC (gene Adssl1): 1.51
- logFC (gene Afap1l2): 1.64
- logFC (gene Akna): 1.375
- logFC (gene Aldh1l2): 1.268
- logFC (gene Ankrd23): 1.409
- logFC (gene Asns): 1.391
- logFC (gene Atp1b2): 1.2305
- logFC (gene Atp2b4): 1.278
- logFC (gene Atp8b3): 1.445
- logFC (gene Bmf): 1.318
- logFC (gene C1s1): 1.363
- logFC (gene Cacng7): 1.328
- logFC (gene Car11): 1.215
- logFC (gene Cebpb): 1.421
- logFC (gene Chn1): 1.21
- logFC (gene Cnn2): 1.571
- logFC (gene Col20a1): 1.535
- logFC (gene Csdc2): 1.317
- logFC (gene Cth): 1.456
- logFC (gene Ctsf): 1.525
- logFC (gene Cyb5r2): 1.681
- logFC (gene Dagla): 1.633
- logFC (gene Dbp): 1.36
- logFC (gene Ddr2): 1.2413
- logFC (gene Dgat1): 1.203
- logFC (gene Dgka): 1.571
- logFC (gene Dglucy): 1.251
- logFC (gene Eef2k): 1.203
- logFC (gene Efhd1): 5.014
- logFC (gene Ehd3): 1.292
- logFC (gene Fam83f): 1.352
- logFC (gene Fam178b): 1.456
- logFC (gene Fbxo2): 1.302
- logFC (gene Fbxo41): 1.469
- logFC (gene Fry): 1.598
- logFC (gene Fstl1): 1.467
- logFC (gene Gjc3): 1.602
- logFC (gene Gli1): 1.6149
- logFC (gene Glipr2): 1.645
- logFC (gene Gm19705): 1.68
- logFC (gene Gpr158): 1.296
- logFC (gene Gpr162): 1.524
- logFC (gene Gstm7): 1.44
- logFC (gene Heg1): 1.713
- logFC (gene Hid1): 1.246
- logFC (gene Hoga1): 1.608
- logFC (gene Hrc): 1.3608
- logFC (gene Id3): 1.638
- logFC (gene Inpp5e): 1.325
- logFC (gene Itga8): 1.267
- logFC (gene Jam2): 1.325
- logFC (gene Kif9): 1.315
- logFC (gene Lrrc75b): 1.346
- logFC (gene Lrtm2): 4.986
- logFC (gene Ltbp4): 1.39
- logFC (gene Mettl27): 1.2162
- logFC (gene Mmp11): 1.398
- logFC (gene Mmp28): 4.741
- logFC (gene Mxd4): 1.4725
- logFC (gene Nccrp1): 5.249
- logFC (gene Neurl3): 1.34
- logFC (gene Notch1): 1.541
- logFC (gene Notch3): 1.442
- logFC (gene Nova2): 1.445
- logFC (gene Nupr1): 1.537
- logFC (gene Nwd1): 1.316
- logFC (gene Pcdh1): 1.75
- logFC (gene Pck2): 1.456
- logFC (gene Pdlim2): 1.539
- logFC (gene Phlda3): 1.237
- logFC (gene Phyhd1): 1.588
- logFC (gene Pierce2): 1.323
- logFC (gene Plk2): 1.532
- logFC (gene Prelp): 5.529
- logFC (gene Prox1): 1.361
- logFC (gene Ptges): 4.4154
- logFC (gene Reck): 1.669
- logFC (gene Rom1): 1.351
- logFC (gene Scamp1): 1.346
- logFC (gene Scube3): 1.291
- logFC (gene Serpinb9b): 1.695
- logFC (gene Shank1): 1.222
- logFC (gene Slc17a7): 1.733
- logFC (gene Slc25a35): 1.406
- logFC (gene Slc25a42): 1.347
- logFC (gene Slc43a2): 1.207
- logFC (gene Sparc): 1.263
- logFC (gene Spn): 1.262
- logFC (gene Sync): 1.481
- logFC (gene Syt7): 1.364
- logFC (gene Trnp1): 1.3245
- logFC (gene Vdr): 5.618
- logFC (gene Wnt10a): 4.9613
- logFC (gene Zfr2): 1.286
